In patent US20050209157A1, “Short bioactive peptides and methods for their use” (priority 2001, published 2005):
Values after ≈ are worked out from the molar mass of the structure shown. Values joined by “and” are separate entries in the source; they are usually repeats but may differ in a detail not shown here. Equal entries are not always repeated. Where two headings read alike, the source gives them in different places. No end group written: not given here.

What was measured:
S. epidermidis C621 = type: cell-based, Staphylococcus epidermidis; settings: for S. epidermidis C621 MIC: mean of three, 16 to 20 hours at 35° C.; for MIC S. epidermis C621: Table 13, in µg/mL
P. acne ATCC 6919 = assay: Antimicrobial assays II, NCCLS broth microdilution MIC; type: cell-based, Propionibacterium acnes; settings: mean of three, in µg/mL
S. pyogenes M76 = assay: as above; type: cell-based, Streptococcus pyogenes; settings: mean of three; 16 to 20 hours at 35° C.
S. pneumoniae C718 = assay: as above; type: cell-based, Streptococcus pneumoniae; settings: mean of three
S. pyogenes ATCC19615 = assay: as above; type: cell-based, Streptococcus pyogenes; settings: mean of three, in µg/mL
S. aureus (MRSA) = type: cell-based, Staphylococcus aureus; settings: for S. aureus (MRSA) MIC: mean of three, 16 to 20 hours at 35° C.; for MIC S. aureus SAP0017: Table 13, strain SAP0017, in µg/mL
in vitro [1] = type: cell-based, human; settings: human, human red blood cells, pH 7, hemolytic assay, concentration at 50% hemolysis, 1 hour at 37° C.; read-out: LD50
S. pneumoniae C719 = assay: Antimicrobial assays II, NCCLS broth microdilution MIC; type: cell-based, Streptococcus pneumoniae; settings: mean of three, in µg/mL
P. aeruginosa H774 = type: cell-based, Pseudomonas aeruginosa; settings: P. aeruginosa H744; nalidixic acid + peptide at ¼ MIC; 0.5 or less = synergy
Summary of the method: (§1)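 Efflux-mutant strains were tested with two-fold serial dilutions of chloramphenicol or nalidixic acid, alone and with peptide held at ¼ of its own MIC.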

P. aeruginosa = type: cell-based, Pseudomonas aeruginosa; settings: P. aeruginosa H744; MIC of nalidixic acid with peptide at ¼ MIC
Summary of the method: as §1

P. aeruginosa H374 [2] = type: cell-based, Pseudomonas aeruginosa; settings: for MIC Cm-comb.: MIC of chloramphenicol with peptide at ¼ MIC; for MIC Nal-comb.: MIC of nalidixic acid with peptide at ¼ MIC; for FIC Index: 0.5 or less = synergy
Summary of the method: as §1

WI38 = settings: MTT, 24 hours with peptide; normal fibroblast line
HeLaS3 = assay: Anti-cancer assay, MTT, LD50; type: cell-based; settings: 24 hours with peptide, cervical carcinoma
From the text: (§2) Numbers are LD50 values (μg/mL).

MCF7 = assay: Anti-cancer assay, MTT, LD50; type: cell-based; settings: MCF7 breast adenocarcinoma line, MTT, 24 hours with peptide
From the text: as §2

SW480 = assay: Anti-cancer assay, MTT, LD50; type: cell-based; settings: SW480 colon adenocarcinoma line, 24 hours with peptide
From the text: as §2

H1299 = assay: Anti-cancer assay, MTT, LD50; type: cell-based; settings: 24 hours with peptide, lung large cell carcinoma
From the text: as §2

[3] = test system: yeast (Saccharomyces cerevisiae); assay: Antimicrobial assay I, yeast assay in RPMI 1640; type: cell-based; settings: RPMI 1640 media
[4] = test system: Staphylococcus aureus ATCC 6538; assay: Antimicrobial assay I, MIC by OD measurement; type: cell-based; settings: 37° C. for 24 hours, absorbance 620 nm
[5] = test system: Pseudomonas aeruginosa ATCC 9027; assay: Antimicrobial assay I, MIC by OD measurement; type: cell-based; settings: 37° C. for 24 hours, absorbance 620 nm
in vitro [6] = settings: human, WI38 normal lung fibroblast cells, LD50 WI38, WI38 normal lung fibroblast line, MTT, 24 hours with peptide
E. coli UB1005 = type: cell-based, Escherichia coli; settings: Table 12
S. typhimurium 14028S = type: cell-based, Salmonella typhimurium; settings: Table 12
[7] = test system: Pseudomonas aeruginosa 100609; type: cell-based; settings: Table 9; in µg/mL
[8] = test system: Pseudomonas aeruginosa 105663; type: cell-based; settings: Table 9; in µg/mL
[9] = test system: Pseudomonas aeruginosa H187; type: cell-based; settings: in µg/mL
[10] = test system: Candida glabrata ATCC15126; assay: Antimicrobial assays II, NCCLS broth microdilution MIC; type: cell-based; settings: Table 13; in µg/mL
P. aeruginosa H374 [11] = type: cell-based, Pseudomonas aeruginosa; settings: in µg/mL
Candida albicans 105 = type: cell-based; settings: Table 13; in µg/mL
PC3 = assay: Anti-cancer assay, MTT, LD50; type: cell-based; settings: 24 hours with peptide, prostate adenocarcinoma
From the text: as §2

BMKC = assay: Anti-cancer assay, MTT, LD50; type: cell-based; settings: BMKC cloned melanoma line, 24 hours with peptide
From the text: as §2

Compound	S. epidermidis C621 MIC (S. epidermidis C621)	P. acne MIC (P. acne ATCC 6919)	S. pyogenes M76 MIC (S. pyogenes M76)	S. pneumoniae MIC (S. pneumoniae C718)	S. pyogenes MIC (S. pyogenes ATCC19615)	S. aureus (MRSA) MIC (S. aureus (MRSA))	S. pneumoniae MIC (S. pneumoniae C719)	MIC E. coli UB1005 (E. coli UB1005)	MIC S. typhimurium 14028S (S. typhimurium 14028S)	MIC P. aeruginosa Tb 100609 [7]	MIC S. epidermis C621 (S. epidermidis C621)	MIC P. aeruginosa Tb 105663 [8]	MIC P. aeruginosa H187 ([9]; Table 9)	MIC P. aeruginosa H187 ([9]; Table 12)	MIC S. aureus SAP0017 (S. aureus (MRSA))	MIC C. glabrata ATCC15126 [10]	MIC P. aeruginosa H374 (P. aeruginosa H374 [11]; Table 9)	MIC P. aeruginosa H374 (P. aeruginosa H374 [11]; Table 12)	MIC C. albicans 105 (Candida albicans 105)	other results
VALALKALKKLLKKLKKLAKKAL-NH2 [P510]	4 µg/mL	2	8 µg/mL	64 µg/mL	8	8 µg/mL	16													HC50 at 1 h (in vitro [1]): 10 µg/mL; FIC Index (P. aeruginosa H774): 1.25; MIC Nal-comb. (P. aeruginosa): 624 µg/mL; MIC Cm-comb. (P. aeruginosa H374 [2]): 4 µg/mL; MIC Nal-comb. (P. aeruginosa H374 [2]): 625 µg/mL; FIC Index (P. aeruginosa H374 [2]; chloramphenicol + peptide at ¼ MIC): 0.5; FIC Index (P. aeruginosa H374 [2]; nalidixic acid + peptide at ¼ MIC, FIC=0.25+MIC comb/MIC alone): 0.375
CC[C@H](C)[C@H](NC(=O)CNC(=O)[C@H](CC(C)C)NC(=O)[C@H](CCCCN)NC(=O)[C@H](C)NC(=O)[C@H](CC(C)C)NC(=O)[C@H](C)NC(=O)[C@@H](NC(=O)[C@H](CCCCN)NC(=O)[C@H](C)NC(=O)[C@@H](NC(=O)[C@@H](N)CCCCN)[C@@H](C)CC)C(C)C)C(=O)NCC(=O)N[C@@H](C)C(=O)N[C@H](C(=O)N[C@@H](CC(C)C)C(=O)N[C@@H](CCCCN)C(=O)N[C@H](C(=O)N[C@@H](CC(C)C)C(=O)N[C@H](C(=O)N[C@H](C(=O)NCC(=O)N[C@@H](CC(C)C)C(N)=O)[C@@H](C)O)[C@@H](C)O)C(C)C)C(C)C [P105]	8 µg/mL	16	16 µg/mL	64 µg/mL	16	32 µg/mL	32													WI38 LD50 (WI38): 430 µg/mL; HeLaS3 LD50 (HeLaS3): > (> indicates greater than 1000); LD50 MCF7 (MCF7): 635 µg/mL; LD50 SW480 (SW480): > (> indicates greater than 1000); H1299 LD50 (H1299): > (> indicates greater than 1000); yeast (MIC or MFC) [3]: > (> indicates greater than 200 μg/mL); staph6538 (MIC) [4]: 200 µg/mL; paerug9027 (MIC) [5]: 200 µg/mL; CC50 at 24 h (in vitro [6]): 430 µg/mL (≈ 189 µM)
FALALKALKKLKKALKKAL-NH2 [P27 (12)]								8 µg/mL	16 µg/mL	8 and 16	4	8 and 16	8	8	8 and 16	16 and 32	8	8	16 and 32	
CC(C)C[C@H](NC(=O)[C@H](C)NC(=O)[C@H](CC(C)C)NC(=O)[C@H](CCCCN)NC(=O)[C@H](C)NC(=O)[C@H](CC(C)C)NC(=O)[C@H](CCCCN)NC(=O)[C@H](CCCCN)NC(=O)[C@H](C)NC(=O)[C@H](CC(C)C)NC(=O)[C@H](CCCCN)NC(=O)[C@H](C)NC(=O)[C@H](CC(C)C)NC(=O)[C@H](CCCCN)NC(=O)[C@H](CCCCN)NC(=O)[C@H](C)NC(=O)[C@@H](N)C(C)C)C(N)=O [P50 (32)]								2 µg/mL (≈ 1.11 µM)	4 µg/mL (≈ 2.21 µM)	4	4	8	4	4	4	16	4	4	16	
FAKKLAKKLAKLAL-NH2 [P45 (27)]								4 µg/mL	32 µg/mL	32	16	32	16	16	32	16	8	8	16	
KYKKALKKLAKLL-NH2 [P146 (108)]								2 µg/mL	4 µg/mL	8	8	8	4	4	16	16	2	2	8	
GIGKFLKKAKKFGKAFVKILKK-NH2 [P42 (24)]								4 µg/mL	8 µg/mL	8	2	8	8	8	16	64	4	4	32	
FAKKFAKKFKKFAKKFAKFAFAF-NH2 [P301, reference compound]	4 µg/mL	2	8 µg/mL	> 128 µg/mL	8	8 µg/mL	8													WI38 LD50 (WI38): 66 µg/mL; PC3 LD50 (PC3): 45 µg/mL; HeLaS3 LD50 (HeLaS3): 170 µg/mL; LD50 BMKC (BMKC): 140 µg/mL; LD50 MCF7 (MCF7): 64 µg/mL; LD50 SW480 (SW480): 76 µg/mL; H1299 LD50 (H1299): 77 µg/mL; HC50 at 1 h (in vitro [1]): 10 µg/mL; MIC Nal-comb. (P. aeruginosa): 624 µg/mL; MIC Cm-comb. (P. aeruginosa H374 [2]): 16 µg/mL; MIC Nal-comb. (P. aeruginosa H374 [2]): 625 µg/mL
FALALKALKKLAKKLKKLAKKAL-NH2 [P25 (10)]								8 µg/mL	8 µg/mL	8	4	8	8	8	16	32	8	8	32	
FAKKLAKKLL-NH2 [P59 (39)]								8 µg/mL	8 µg/mL	8	8	8	8	8	8	16	8	8	32	
